{"source": "patent US20170121351A1", "about": "“Synthesis of Zinc-Lysine Complex From Zinc Chloride” (Colgate-Palmolive Company, priority 2014, published 2017)", "assay": "Zeta potential", "assay_type": "physicochemical", "description": "In certain embodiments, the ZLC, e.g., any of Complex 2, et seq. can have a zeta potential on the order of +10 to +60, e.g., between +20 and +50. Zeta potential is measured as described below. The zeta potential indicates the degree of repulsion between adjacent, similarly charged particles in a dispersion. For molecules and particles that are small enough to be influenced by […], a high zeta potential will tend to confer stability, i.e., the particles will tend to repel one another, and the solution or dispersion will resist aggregation. When the zeta potential is low, attraction exceeds repulsion and the dispersion will break and flocculate. Here, it is desirable to have a zeta potential that is high enough in formulation to deter aggregation, but low enough to allow flocculation and blockage of the pores. […] Having a similar zeta potential, the ZLC, e.g., any of Complex 2, et seq. will behave similarly and flocculate when introduced into a pore and becomes hydrated. In contrast, zinc chloride has a zeta potential of about 0, which is much lower than current antiperspirant salts and the current disclosure."}
{"smiles": "[Cl-].[Cl-].[Zn+2]", "note": "[zinc chloride]", "values": [{"measurement": "zeta potential", "value": "about 0"}]}
